From patent US8952024B2, “Herbicidal pyrimidone derivatives” (E I du Pont de Nemours and Company, priority 2009, dated 2015)
Where two headings read alike, the source gives them in different places.

Experiments:
Assay type in all cases: in vivo
[1] = system: morningglory (Ipomoea spp.); test: Test A pre-/postemergence plant response; settings: for pest or weed control at 125 g/ha / pest or weed control at 500 g/ha: Ipomoea, 240 h
Outline: (§1)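 Both pre- and postemergence treatments are applied simultaneously, using chemicals formulated in a non-phytotoxic solvent mixture with surfactant. Postemergence plants are 2–10 cm high with one to two leaves. After approximately ten days in a greenhouse, injury is scored visually from 0 (none) to 100 (complete control) relative to untreated plants.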

[2] = system: giant foxtail (Setaria faberii); test: Test A pre-/postemergence plant response; settings: for pest or weed control at 125 g/ha / pest or weed control at 500 g/ha: Setaria faberi, 240 h
Outline: as §1

[3] = system: wheat (Triticum aestivum); test: Test A pre-/postemergence plant response; settings: for plant injury at 125 g/ha / plant injury at 500 g/ha: Triticum aestivum, 240 h
Outline: as §1

[4] = system: large crabgrass (Digitaria sanguinalis); test: Test A pre-/postemergence plant response; settings: for pest or weed control at 125 g/ha / pest or weed control at 500 g/ha: Digitaria sanguinalis, 240 h
Outline: as §1

[5] = system: velvetleaf (Abutilon theophrasti); test: Test A pre-/postemergence plant response; settings: for pest or weed control at 125 g/ha / pest or weed control at 500 g/ha: Abutilon theophrasti, 240 h
Outline: as §1

[6] = system: corn (Zea mays); test: Test A pre-/postemergence plant response
Outline: as §1

[7] = system: winter barley (Hordeum vulgare); test: Test B postemergence plant response
Source text: (§2) At the same time, plants selected from these crop and weed species and also winter barley (Hordeum vulgare), canarygrass (Phalaris minor), chickweed (Stellaria media) and windgrass (Apera spica-venti) were planted in pots containing Redi-Earth® planting medium (Scotts Company, 14111 Scottslawn Road, Marysville, Ohio 43041) comprising spaghnum peat moss, vermiculite, wetting agent and starter nutrients and treated with postemergence applications of some of the test chemicals formulated in the same manner. Plants ranged in height from 2 to 18 cm (1- to 4-leaf stage) for postemergence treatments.
(§3) Treated plants and controls were maintained in a greenhouse for 13 to 15 days, after which time all treated plants were visually evaluated and compared to controls. Plant response ratings, summarized in Table B, are based on a scale of 0 to 100 where 0 is no effect and 100 is complete control. A dash (-) response means no test result.

[8] = system: windgrass (Apera spica-venti); test: Test B postemergence plant response
Source text: as §2, §3

[9] = system: canarygrass (Phalaris minor); test: Test B postemergence plant response
Source text: as §2, §3

[10] = system: chickweed (Stellaria media); test: Test B postemergence plant response
Source text: as §2, §3

[11] = Postemergence, 125 g ai/ha, visual injury, 0 to 100 scale (0 no effect, 100 complete control), approx. ten days
[12] = Postemergence, 500 g ai/ha, 0 to 100 scale, 0 = no effect, 100 = complete control, approx. ten days
[13] = Preemergence, 125 g ai/ha, 0 to 100 scale, 0 = no effect, 100 = complete control
[14] = Preemergence, 500 g ai/ha, visual injury, 0 to 100 scale (0 no effect, 100 complete control), approx. ten days
[15] = 31 g ai/ha, postemergence, scale 0 to 100, 0 is no effect, 100 is complete control
[16] = 62 g ai/ha, postemergence, 0 is no effect, 100 is complete control, 13 to 15 days
[17] = Postemergence, 125 g ai/ha, visual rating after 13 to 15 days, scale 0 (no effect) to 100 (complete control)
[18] = Postemergence, 250 g ai/ha, scale 0 to 100 (0 no effect, 100 complete control)

Compound: O=C1CCCC(O)=C1C(=O)c1cnc(-c2ccc(Br)cc2)n(-c2ccccc2)c1=O [Compound 70]
- Morningglory plant response rating [1, 11]: 100
- Plant response rating, Morningglory [1, 12]: 100
- Plant response rating, Morningglory [1, 13]: 0
- Plant response rating, Morningglory [1, 14]: 10
- Foxtail, Giant plant response rating [2, 11]: 50
- Plant response rating, Foxtail, Giant [2, 12]: 90
- Plant response rating, Foxtail, Giant [2, 13]: 30
- Plant response rating, Foxtail, Giant [2, 14]: 60
- Wheat plant response rating [3, 11]: 0
- Plant response rating, Wheat [3, 12]: 0
- Plant response rating, Wheat [3, 13]: 0
- Plant response rating, Wheat [3, 14]: 0
- Crabgrass, Large plant response rating [4, 11]: 50
- Plant response rating, Crabgrass, Large [4, 12]: 90
- Plant response rating, Crabgrass, Large [4, 13]: 40
- Plant response rating, Crabgrass, Large [4, 14]: 90
- Velvetleaf plant response rating [5, 11]: 100
- Plant response rating, Velvetleaf [5, 12]: 100
- Plant response rating, Velvetleaf [5, 13]: 70
- Plant response rating, Velvetleaf [5, 14]: 80
- Corn plant response rating [6, 11]: 0
- Plant response rating, Corn [6, 12]: 20
- Plant response rating, Corn [6, 13]: 0
- Plant response rating, Corn [6, 14]: 0
- Plant response rating, Barley [7, 15]: 10
- Barley plant response rating (0 to 100 scale) [7, 16]: 30
- Plant response rating, Barley [7, 17]: 90
- Plant response rating, Barley [7, 18]: 90
- Plant response rating, Windgrass [8, 15]: 80
- Windgrass plant response rating (0 to 100 scale) [8, 16]: 85
- Plant response rating, Windgrass [8, 17]: 90
- Plant response rating, Windgrass [8, 18]: 100
- Plant response rating, Canarygrass [9, 15]: 50
- Canarygrass plant response rating (0 to 100 scale) [9, 16]: 80
- Plant response rating, Canarygrass [9, 17]: 85
- Plant response rating, Canarygrass [9, 18]: 98
- Plant response rating, Chickweed [10, 15]: 80
- Chickweed plant response rating (0 to 100 scale) [10, 16]: 90
- Plant response rating, Chickweed [10, 17]: 98
- Plant response rating, Chickweed [10, 18]: 100

Compound: COc1cccc(-n2c(-c3ccccc3)ncc(C(=O)C3=C(O)CCCC3=O)c2=O)c1 [Compound 19]
- Morningglory plant response rating [1, 11]: 0
- Plant response rating, Morningglory [1, 12]: 60
- Plant response rating, Morningglory [1, 13]: 0
- Plant response rating, Morningglory [1, 14]: 50
- Foxtail, Giant plant response rating [2, 11]: 20
- Plant response rating, Foxtail, Giant [2, 12]: 50
- Plant response rating, Foxtail, Giant [2, 13]: 10
- Plant response rating, Foxtail, Giant [2, 14]: 30
- Wheat plant response rating [3, 11]: 0
- Plant response rating, Wheat [3, 12]: 0
- Plant response rating, Wheat [3, 13]: 0
- Plant response rating, Wheat [3, 14]: 0
- Crabgrass, Large plant response rating [4, 11]: 0
- Plant response rating, Crabgrass, Large [4, 12]: 20
- Plant response rating, Crabgrass, Large [4, 13]: 20
- Plant response rating, Crabgrass, Large [4, 14]: 80
- Velvetleaf plant response rating [5, 11]: 100
- Plant response rating, Velvetleaf [5, 12]: 100
- Plant response rating, Velvetleaf [5, 13]: 50
- Plant response rating, Velvetleaf [5, 14]: 100
- Corn plant response rating [6, 11]: 0
- Plant response rating, Corn [6, 12]: 10
- Plant response rating, Corn [6, 13]: 0
- Plant response rating, Corn [6, 14]: 0

Compound: CCn1ncc(C(=O)c2cnc(-c3ccccc3)n(Cc3ccccc3)c2=O)c1O [Compound 20, 5-[(1-ethyl-5-hydroxy-1H-pyrazol-4-yl)carbonyl]-2-phenyl-3-(phenylmethyl)-4(3H)-pyrimidinone]
- pest or weed control at 125 g/ha ([1]; post-emergence, Postemergence, 125 g ai/ha, visual injury, 0 to 100 scale (0 no effect, 100 complete control), approx. ten days, read-out: Morningglory plant response rating): 0%
- pest or weed control at 500 g/ha ([1]; post-emergence, Postemergence, 500 g ai/ha, 0 to 100 scale, 0 = no effect, 100 = complete control, approx. ten days, read-out: Plant response rating, Morningglory): 10%
- pest or weed control at 125 g/ha ([1]; pre-emergence, Preemergence, 125 g ai/ha, 0 to 100 scale, 0 = no effect, 100 = complete control, read-out: Plant response rating, Morningglory): 0%
- pest or weed control at 500 g/ha ([1]; pre-emergence, Preemergence, 500 g ai/ha, visual injury, 0 to 100 scale (0 no effect, 100 complete control), approx. ten days, read-out: Plant response rating, Morningglory): 0%
- pest or weed control at 125 g/ha ([2]; post-emergence, Postemergence, 125 g ai/ha, visual injury, 0 to 100 scale (0 no effect, 100 complete control), approx. ten days, read-out: Foxtail, Giant plant response rating): 0%
- pest or weed control at 500 g/ha ([2]; post-emergence, Postemergence, 500 g ai/ha, 0 to 100 scale, 0 = no effect, 100 = complete control, approx. ten days, read-out: Plant response rating, Foxtail, Giant): 0%
- pest or weed control at 125 g/ha ([2]; pre-emergence, Preemergence, 125 g ai/ha, 0 to 100 scale, 0 = no effect, 100 = complete control, read-out: Plant response rating, Foxtail, Giant): 0%
- pest or weed control at 500 g/ha ([2]; pre-emergence, Preemergence, 500 g ai/ha, visual injury, 0 to 100 scale (0 no effect, 100 complete control), approx. ten days, read-out: Plant response rating, Foxtail, Giant): 20%
- plant injury at 125 g/ha ([3]; post-emergence, Postemergence, 125 g ai/ha, visual injury, 0 to 100 scale (0 no effect, 100 complete control), approx. ten days, read-out: Wheat plant response rating): 0%
- plant injury at 500 g/ha ([3]; post-emergence, Postemergence, 500 g ai/ha, 0 to 100 scale, 0 = no effect, 100 = complete control, approx. ten days, read-out: Plant response rating, Wheat): 0%
- plant injury at 125 g/ha ([3]; pre-emergence, Preemergence, 125 g ai/ha, 0 to 100 scale, 0 = no effect, 100 = complete control, read-out: Plant response rating, Wheat): 0%
- plant injury at 500 g/ha ([3]; pre-emergence, Preemergence, 500 g ai/ha, visual injury, 0 to 100 scale (0 no effect, 100 complete control), approx. ten days, read-out: Plant response rating, Wheat): 0%
- pest or weed control at 125 g/ha ([4]; post-emergence, Postemergence, 125 g ai/ha, visual injury, 0 to 100 scale (0 no effect, 100 complete control), approx. ten days, read-out: Crabgrass, Large plant response rating): 0%
- pest or weed control at 500 g/ha ([4]; post-emergence, Postemergence, 500 g ai/ha, 0 to 100 scale, 0 = no effect, 100 = complete control, approx. ten days, read-out: Plant response rating, Crabgrass, Large): 10%
- pest or weed control at 125 g/ha ([4]; pre-emergence, Preemergence, 125 g ai/ha, 0 to 100 scale, 0 = no effect, 100 = complete control, read-out: Plant response rating, Crabgrass, Large): 0%
- pest or weed control at 500 g/ha ([4]; pre-emergence, Preemergence, 500 g ai/ha, visual injury, 0 to 100 scale (0 no effect, 100 complete control), approx. ten days, read-out: Plant response rating, Crabgrass, Large): 30%
- pest or weed control at 125 g/ha ([5]; post-emergence, Postemergence, 125 g ai/ha, visual injury, 0 to 100 scale (0 no effect, 100 complete control), approx. ten days, read-out: Velvetleaf plant response rating): 20%
- pest or weed control at 500 g/ha ([5]; post-emergence, Postemergence, 500 g ai/ha, 0 to 100 scale, 0 = no effect, 100 = complete control, approx. ten days, read-out: Plant response rating, Velvetleaf): 70%
- pest or weed control at 125 g/ha ([5]; pre-emergence, Preemergence, 125 g ai/ha, 0 to 100 scale, 0 = no effect, 100 = complete control, read-out: Plant response rating, Velvetleaf): 0%
- pest or weed control at 500 g/ha ([5]; pre-emergence, Preemergence, 500 g ai/ha, visual injury, 0 to 100 scale (0 no effect, 100 complete control), approx. ten days, read-out: Plant response rating, Velvetleaf): 50%
- plant injury at 125 g/ha ([6]; Zea mays, post-emergence, 240 h, Postemergence, 125 g ai/ha, visual injury, 0 to 100 scale (0 no effect, 100 complete control), approx. ten days, read-out: Corn plant response rating): 0%
- Corn plant response rating (crop injury, 0 = no effect, 100 = complete kill) at 500 g/ha ([6]; Zea mays, post-emergence, 240 h, Postemergence, 500 g ai/ha, 0 to 100 scale, 0 = no effect, 100 = complete control, approx. ten days): 10%
- Corn plant response rating (crop injury, 0 = no effect, 100 = complete kill) at 125 g/ha ([6]; Zea mays, pre-emergence, 240 h, Preemergence, 125 g ai/ha, 0 to 100 scale, 0 = no effect, 100 = complete control): 0%
- Corn plant response rating (crop injury, 0 = no effect, 100 = complete kill) at 500 g/ha ([6]; Zea mays, pre-emergence, 240 h, Preemergence, 500 g ai/ha, visual injury, 0 to 100 scale (0 no effect, 100 complete control), approx. ten days): 0%
